Patent publication US20050119288A1, “Dosing schedule for a novel anticancer agent” (Pfizer Inc, priority 2003, published 2005)

Experiment: Body weight and tolerability, BT-474 study
Format: in vivo, mice
Conditions: PO
Experimental: Exponentially growing BT-474 cells (RPMI 1640 with 10 mM HEPES, 10% FBS, and pen/strep [Gibco]) were harvested and inoculated SC (5 million cells/animal) into female athymic mice. Trochar pieces of BT-474 tumors were then implanted into the right flank of animals. BT-474 tumor bearing mice (50-320 mm^3 in size, N=40) were randomized in 7 groups consisting 5-6 animals each. Animals were treated with vehicle (PO, BID) or the test compound (PO, QD or BID) as described in Table 4. The tumor measurements and body weight changes were obtained on days 1, 6, 11, 15 and 22. Tumor volume was calculated by the following formula: Tumor volume (mm^3)═(W×W)/2×L (L=length & W=width). Blood samples (˜50 μl) were isolated at 0.5, 1, 2, 4 and 8 hrs after dosing on day 22 for PK-analysis. Tumors were isolated at 0.5 hr post-dosing on day 22 for PD-analysis by ELISA.

COCC(=O)NC/C=C/c1ccc2ncnc(Nc3ccc(Oc4ccc(C)nc4)c(C)c3)c2c1 [Test Compound, E-2-Methoxy-N-(3-{4-(3-methyl-4-(6-methyl-pyridin-3-yloxy)-phenylamino)-quinazolin-6-yl}-allyl)-acetamide]
average body weight Day 1 (BID 50 mg/kg): 24 g | average body weight Day 1 (BID, 15 mg/kg): 24 g | average body weight Day 22 (BID, 15 mg/kg): 29 g | average body weight Day 1 (BID, 30 mg/kg): 26 g | average body weight Day 22 (BID, 30 mg/kg): 30 g | average body weight Day 22 (BID, 50 mg/kg): 28 g | average body weight Day 1 (QD 50 mg/kg): 25 g | average body weight Day 1 (QD, 15 mg/kg): 25 g | average body weight Day 22 (QD, 15 mg/kg): 29 g | average body weight Day 1 (QD, 30 mg/kg): 23 g | average body weight Day 22 (QD, 30 mg/kg): 27 g | average body weight Day 22 (QD, 50 mg/kg): 29 g | tolerability, body weight loss or animal mortality (QD or BID, 22 days): well tolerated and there was no body weight loss or animal mortality
